The values that follow come from US12398154B2, “Azaquinazoline pan-KRas inhibitors” (Mirati Therapeutics, Inc., priority 2020, dated 2025).

Test [1] concerns the target KRas G12R (Homo sapiens, UniProt P01116, G12R). Kind of test: biochemical.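 Also: TR-FRET displacement assay of compound binding to KRas, read after one hour at room temperature, potency from a four-parameter fit of percent-of-control values.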
Protocol: (§1) The ability of a compound to bind to KRas was measured using a TR-FRET displacement assay. […] After a 60-minute incubation at room temperature, the reaction was measured using a BMG LABTECH CLARIO star Plus via TR-FRET. […] The POC values were fit to a 4-parameter IC50 equation and the IC50 value reported.
Test [2] deals with KRas G12V (Homo sapiens, UniProt P01116, G12V). The test is described as follows: biochemical.
Chain of KRas G12V (P01116 1-169 isoform P01116-2 G12V): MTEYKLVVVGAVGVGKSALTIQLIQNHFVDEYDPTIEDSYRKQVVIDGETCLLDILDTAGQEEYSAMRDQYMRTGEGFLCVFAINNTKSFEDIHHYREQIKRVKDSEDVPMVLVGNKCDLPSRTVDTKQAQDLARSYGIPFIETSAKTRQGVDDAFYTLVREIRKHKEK
Protocol: as §1
For test [3], the target named is KRas G12C (Homo sapiens, UniProt P01116, G12C). Kind of test: biochemical.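 Also: binding to KRas assessed by TR-FRET displacement after one hour incubation at room temperature, potency fitted from percent-of-control values.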
Chain of KRas G12C (P01116 1-169 isoform P01116-2 G12C): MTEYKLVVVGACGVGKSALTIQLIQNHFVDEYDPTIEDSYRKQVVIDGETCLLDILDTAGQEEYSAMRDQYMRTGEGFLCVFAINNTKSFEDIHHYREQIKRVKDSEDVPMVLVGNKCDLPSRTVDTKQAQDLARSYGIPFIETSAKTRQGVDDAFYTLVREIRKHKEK
Protocol: as §1
Test [4] addresses T1, KRas G13D (Homo sapiens, UniProt P01116, G13D).
T1 construct: Biotinylated KRas (corresponding to amino acids 1-169, produced at Accelegan Inc.); biotin (biotinylated); purchased Accelegan Inc
The test is described as follows: KRas binding assay (TR-FRET displacement). (Time-resolved FRET reads energy transfer from a long-lived donor to a nearby acceptor.)
Protocol: as §1

Test [5] deals with KRas WT (Homo sapiens, UniProt P01116). Kind of test: biochemical.
Chain of KRas WT (P01116 1-169 isoform P01116-2): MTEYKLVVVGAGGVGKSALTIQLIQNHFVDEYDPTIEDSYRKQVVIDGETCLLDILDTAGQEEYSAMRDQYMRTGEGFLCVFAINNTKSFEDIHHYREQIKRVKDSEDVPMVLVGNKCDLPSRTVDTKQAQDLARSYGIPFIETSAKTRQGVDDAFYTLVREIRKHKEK
Protocol: as §1
For test [6], the target named is T2, KRas Q61H (Homo sapiens, UniProt P01116, Q61H).
T2 construct: Biotinylated KRas (corresponding to amino acids 1-169, produced at Accelegan Inc.); biotin (biotinylated); purchased Accelegan Inc
T2 sequence (P01116 1-169 isoform P01116-2 Q61H): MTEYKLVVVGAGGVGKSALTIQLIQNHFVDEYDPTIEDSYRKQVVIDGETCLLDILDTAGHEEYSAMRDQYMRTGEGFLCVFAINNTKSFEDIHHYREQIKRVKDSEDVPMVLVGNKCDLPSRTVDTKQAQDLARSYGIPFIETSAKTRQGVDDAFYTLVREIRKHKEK
The test is described as follows: KRas binding assay (TR-FRET displacement).
Protocol: as §1

Test [7] addresses KRas G12A (Homo sapiens, UniProt P01116, G12A). The test is described as follows: biochemical.
Protocol: as §1
Test [8] addresses KRas G12D (Homo sapiens, UniProt P01116, G12D). Kind of test: biochemical.
Protocol: as §1
The target of test [9] is KRas G12S (Homo sapiens, UniProt P01116, G12S). Kind of test: biochemical.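 Also: TR-FRET displacement binding to KRas, read after one hour incubation at room temperature, IC50 from four-parameter fit of percent of control.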
Chain of KRas G12S (P01116 1-169 isoform P01116-2 G12S): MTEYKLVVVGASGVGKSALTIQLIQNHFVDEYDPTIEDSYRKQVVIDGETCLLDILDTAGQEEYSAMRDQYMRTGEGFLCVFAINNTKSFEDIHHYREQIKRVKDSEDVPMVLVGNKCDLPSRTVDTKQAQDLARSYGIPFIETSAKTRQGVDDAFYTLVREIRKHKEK
Protocol: as §1

Chain of KRas G12D (P01116 1-169 isoform P01116-2 G12D): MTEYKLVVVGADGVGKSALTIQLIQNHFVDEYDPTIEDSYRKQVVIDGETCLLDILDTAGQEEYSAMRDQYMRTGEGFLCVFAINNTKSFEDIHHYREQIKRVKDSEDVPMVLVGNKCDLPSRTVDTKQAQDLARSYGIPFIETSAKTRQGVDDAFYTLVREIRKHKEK
Chain of KRas G12R (P01116 1-169 isoform P01116-2 G12R): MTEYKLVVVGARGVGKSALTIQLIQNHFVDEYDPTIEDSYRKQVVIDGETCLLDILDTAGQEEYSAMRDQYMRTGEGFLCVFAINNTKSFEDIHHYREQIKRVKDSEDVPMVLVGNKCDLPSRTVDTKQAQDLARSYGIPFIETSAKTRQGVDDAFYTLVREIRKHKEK
Chain of KRas G12A (P01116 1-169 isoform P01116-2 G12A): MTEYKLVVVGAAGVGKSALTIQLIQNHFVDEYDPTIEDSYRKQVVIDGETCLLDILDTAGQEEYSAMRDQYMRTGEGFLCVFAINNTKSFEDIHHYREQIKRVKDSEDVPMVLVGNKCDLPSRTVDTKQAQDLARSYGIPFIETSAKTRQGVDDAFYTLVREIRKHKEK
T1 sequence (P01116 1-169 isoform P01116-2 G13D): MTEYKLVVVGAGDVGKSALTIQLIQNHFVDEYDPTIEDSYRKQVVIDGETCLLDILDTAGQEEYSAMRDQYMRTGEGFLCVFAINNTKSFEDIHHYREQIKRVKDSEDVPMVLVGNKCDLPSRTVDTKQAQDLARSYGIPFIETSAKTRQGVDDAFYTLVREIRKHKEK

The term IC50 denotes the concentration that inhibits the measured activity by half. Turning to `CNS(=O)(=O)C1CCCN(c2nc(OCC34CCCN3CCC4)nc3c(F)c(-c4cccc5cccc(F)c45)ncc23)C1` (stereo not drawn) [Example 237, 1-(8-fluoro-7-(8-fluoronaphthalen-1-yl)-2-((hexahydro-1H-pyrrolizin-7a-yl)methoxy)pyrido[4,3-d]pyrimidin-4-yl)-N-methylpiperidine-3-sulfonamide], the IC50 was found to be 9.74 µM in [1]; 7.61 µM in test [2]; 7.59 µM in test [3]; 8290 nM in test [4]; 4.36 µM in [5]; 6380 nM in test [6]. In addition, the IC50 is 5.34 µM in test [7], 9.56 µM in test [8] and 8.92 µM in test [9].

Consider `O=S1(=O)CCCN1C1CCCN(c2nc(OCC34CCCN3CCC4)nc3c(F)c(-c4cccc5cccc(F)c45)ncc23)C1` (stereo not drawn) [Example 239, 2-(1-(8-fluoro-7-(8-fluoronaphthalen-1-yl)-2-((hexahydro-1H-pyrrolizin-7a-yl)methoxy)pyrido[4,3-d]pyrimidin-4-yl)piperidin-3-yl)isothiazolidine 1,1-dioxide], for which the IC50 turned out to be 4.81 µM in test [1]; 4.93 µM in test [2]; 1.61 µM in test [3]; 1640 nM in test [4]; 1.83 µM in [5]; 2670 nM in [6]. Besides, the half-inhibitory concentration (IC50) amounted to 1.98 µM in test [7], 8.65 µM in test [8] and 2.21 µM in test [9].

As to `NS(=O)(=O)NC1CCCN(c2nc(OCC34CCCN3CCC4)nc3c(F)c(-c4cccc5cccc(F)c45)ncc23)C1` (stereo not drawn) [Example 240, 8-fluoro-7-(8-fluoronaphthalen-1-yl)-2-(1,2,3,5,6,7-hexahydropyrrolizin-8-ylmethoxy)-4-[3-(sulfamoylamino)piperidin-1-yl]pyrido[4,3-d]pyrimidine], the IC50 stood at 0.777 µM in test [1]; 1.55 µM in test [2]; 0.597 µM in test [3]; 350 nM in test [4]; 0.478 µM in test [5]; 498 nM in [6]. Besides, the values for the IC50 in test [7], in test [8] and in test [9] were 0.586 µM, 1.14 µM and 0.492 µM, respectively.

Take `O=CNC1CCCN(c2nc(OCC34CCCN3CCC4)nc3c(F)c(-c4cccc5cccc(F)c45)ncc23)C1` (stereo not drawn) [Example 242, N-(1-(8-fluoro-7-(8-fluoronaphthalen-1-yl)-2-((hexahydro-1H-pyrrolizin-7a-yl)methoxy)pyrido[4,3-d]pyrimidin-4-yl)piperidin-3-yl)formamide]: the half-maximal inhibitory concentration (IC50) is 13 µM in test [1]; 7.63 µM in test [2]; 6.96 µM in test [3]; 7860 nM in test [4]; 11 µM in test [5]; 13600 nM in test [6]. Besides, the values for the IC50 in test [7], in test [8] and in [9] were 8.19 µM, 8.03 µM and 6.23 µM, respectively.

`NC(=O)NC1CCN(c2nc(OCC34CCCN3CCC4)nc3c(F)c(-c4cccc5cccc(F)c45)ncc23)CC1` [Example 243, 1-(1-(8-fluoro-7-(8-fluoronaphthalen-1-yl)-2-((hexahydro-1H-pyrrolizin-7a-yl)methoxy)pyrido[4,3-d]pyrimidin-4-yl)piperidin-4-yl)urea]: the IC50 was 1.06 µM in [1]; 2.19 µM in [2]; 1.15 µM in [3]; 2960 nM in test [4]; 3.32 µM in test [5]; 3580 nM in test [6]. Moreover, the IC50 came out at 1.05 µM in test [7], 25.4 µM in test [8] and 1.81 µM in [9].

With `O=CNC1CCN(c2nc(OCC34CCCN3CCC4)nc3c(F)c(-c4cccc5cccc(F)c45)ncc23)CC1` [Example 244, N-(1-(8-fluoro-7-(8-fluoronaphthalen-1-yl)-2-((hexahydro-1H-pyrrolizin-7a-yl)methoxy)pyrido[4,3-d]pyrimidin-4-yl)piperidin-4-yl)formamide], the IC50 was determined as 3.1 µM in test [1]; 3.57 µM in test [2]; 2.82 µM in test [3]; 4860 nM in test [4]; 5.14 µM in test [5]; 5080 nM in [6]. Moreover, the IC50 was 1.85 µM in test [7], 18.2 µM in test [8] and 3.06 µM in test [9].

In the case of `O=S1(=O)NCCC2(CCCN(c3nc(OCC45CCCN4CCC5)nc4c(F)c(-c5cccc6cccc(F)c56)ncc34)C2)N1` (stereo not drawn) [Example 247, 8-(8-fluoro-7-(8-fluoronaphthalen-1-yl)-2-((hexahydro-1H-pyrrolizin-7a-yl)methoxy)pyrido[4,3-d]pyrimidin-4-yl)-2-thia-1,3,8-triazaspiro[5.5]undecane 2,2-dioxide], the IC50 in [1] worked out at 2.56 µM; in test [2], 1.83 µM; in test [3], 2.68 µM; in test [4], 1180 nM; in test [5], 1.59 µM; in test [6], 2060 nM. Also, the IC50 in test [7] was 2.11 µM; in test [8] it was 0.429 µM; in test [9], 2.15 µM.

Take `NS(=O)(=O)CC1CN(c2nc(OCC34CCCN3CCC4)nc3c(F)c(-c4cccc5cccc(F)c45)ncc23)CCO1` (stereo not drawn) [Example 249, 1-(4-(8-fluoro-7-(8-fluoronaphthalen-1-yl)-2-((tetrahydro-1H-pyrrolizin-7a(5H)-yl)methoxy)pyrido[4,3-d]pyrimidin-4-yl)morpholin-2-yl)methanesulfonamide]: the IC50 in test [1] is 0.424 µM; in test [2] it was 1.29 µM; in [3], 0.979 µM; in [4] it was 1280 nM; in [5], 1.06 µM; in test [6] it was 808 nM. Besides, the values for the IC50 in [7], in test [8] and in [9] were 0.981 µM, 7.86 µM and 0.742 µM, respectively.

With `CS(=O)(=O)C1CCCCN(c2nc(OCC34CCCN3CCC4)nc3c(F)c(-c4cccc5cccc(F)c45)ncc23)C1` (stereo not drawn) [Example 250, 8-fluoro-7-(8-fluoronaphthalen-1-yl)-2-((hexahydro-1H-pyrrolizin-7a-yl)methoxy)-4-(3-(methylsulfonyl)azepan-1-yl)pyrido[4,3-d]pyrimidine], the concentration for half-maximal inhibition (IC50) in [1] was found to be 3.99 µM; in [2], 3.41 µM; in test [3], 6.84 µM; in test [4], 3510 nM; in test [5] it was 3.58 µM; in test [6], 5310 nM. Moreover, the IC50 in test [7] stood at 3.93 µM; in test [8], 7.31 µM; in test [9], 3.8 µM.

For the compound `CS(=O)(=O)C1CCCCCN(c2nc(OCC34CCCN3CCC4)nc3c(F)c(-c4cccc5cccc(F)c45)ncc23)C1` (stereo not drawn) [Example 251, 8-fluoro-7-(8-fluoronaphthalen-1-yl)-2-((hexahydro-1H-pyrrolizin-7a-yl)methoxy)-4-(3-(methylsulfonyl)azocan-1-yl)pyrido[4,3-d]pyrimidine], the IC50 in test [1] was 14.6 µM; in test [2], 3.87 µM; in test [3] it was 6.4 µM; in [4], 3780 nM; in [5] it was 3.84 µM; in test [6] it was 6250 nM. Also, the IC50 is 6.12 µM in test [7], 6.83 µM in test [8] and 5.75 µM in test [9].
